Common to all, as to experiment: AK assay 384-well format, Prestwick library screening
The subject of test [1] is S. aureus strain USA300-0114. It counts as cell-based, Staphylococcus aureus. Conditions: Staphylococcus aureus, USA300, 3 h.
Test [2] relates to K. pneumoniae. The class given is cell-based, Klebsiella pneumoniae. Conditions: Klebsiella pneumoniae, 3 h.
For test [3], the system named is P. aeruginosa. The class given is cell-based, Pseudomonas aeruginosa. The conditions noted are these: Pseudomonas aeruginosa, 3 h.
Test [4] concerns A. baumannii strain 98-37-09. It counts as cell-based, Acinetobacter baumannii. The conditions noted are these: Acinetobacter baumannii, 983709, 3 h.
Test [5] has as its system E. faecium. The class given is cell-based, Enterococcus faecium. Conditions: Enterococcus faecium, 3 h.
The test system of test [6] is E. coli. It counts as cell-based, Escherichia coli. The conditions noted are these: Escherichia coli, 3 h.
Test [7] concerns E. cloacae. It counts as cell-based, Enterobacter cloacae. Conditions: Enterobacter cloacae, 3 h.
Setting [8] is: planktonic S. aureus, 50 μM final drug concentration, cutoff for positive-scoring molecules 3-fold increase, read-out: AK-based Prestwick Library Screening Results, S. aureus (increase in extracellular AK activity).
Where [9] appears, read: planktonic K. pneumoniae, 50 μM final drug concentration, cutoff for positive-scoring molecules 3-fold increase, read-out: AK-based Prestwick Library Screening Results, K. pneumoniae (increase in extracellular AK activity).
Setting [10] is: planktonic P. aeruginosa, 50 μM final drug concentration, cutoff for positive-scoring molecules 3-fold increase, read-out: AK-based Prestwick Library Screening Results, P. aeruginosa (increase in extracellular AK activity).
The mark [11] stands for this setting: planktonic A. baumannii, 50 μM final drug concentration, cutoff for positive-scoring molecules 3-fold increase, read-out: AK-based Prestwick Library Screening Results, A. baumannii (increase in extracellular AK activity).
The mark [12] stands for this setting: planktonic E. faecium, 50 μM final drug concentration, cutoff for positive-scoring molecules 3-fold increase, read-out: AK-based Prestwick Library Screening Results, E. faecium (increase in extracellular AK activity).
Where [13] appears, read: planktonic E. coli, 50 μM final drug concentration, cutoff for positive-scoring molecules 3-fold increase, read-out: AK-based Prestwick Library Screening Results, E. coli (increase in extracellular AK activity).
Where [14] appears, read: planktonic E. cloacae, 50 μM final drug concentration, cutoff for positive-scoring molecules 3-fold increase, read-out: AK-based Prestwick Library Screening Results, E. cloacae (increase in extracellular AK activity).
The mark [15] stands for this setting: planktonic S. aureus, 50 μM final drug concentration, […], read-out: AK-based Prestwick Library Screening Results, S. aureus (increase in extracellular AK activity).
Where [16] appears, read: planktonic K. pneumoniae, 50 μM final drug concentration, […], read-out: AK-based Prestwick Library Screening Results, K. pneumoniae (increase in extracellular AK activity).
Where [17] appears, read: planktonic P. aeruginosa, 50 μM final drug concentration, […], read-out: AK-based Prestwick Library Screening Results, P. aeruginosa (increase in extracellular AK activity).
The mark [18] stands for this setting: planktonic A. baumannii, 50 μM final drug concentration, […], read-out: AK-based Prestwick Library Screening Results, A. baumannii (increase in extracellular AK activity).
The mark [19] stands for this setting: planktonic E. faecium, 50 μM final drug concentration, […], read-out: AK-based Prestwick Library Screening Results, E. faecium (increase in extracellular AK activity).
Where [20] appears, read: planktonic E. coli, 50 μM final drug concentration, […], read-out: AK-based Prestwick Library Screening Results, E. coli (increase in extracellular AK activity).
The mark [21] stands for this setting: planktonic E. cloacae, 50 μM final drug concentration, […], read-out: AK-based Prestwick Library Screening Results, E. cloacae (increase in extracellular AK activity).
The mark [22] stands for this setting: 50 μM final drug concentration, 384-well format, cutoff for positive-scoring molecules 3-fold increase, read-out: AK-based Prestwick Library Screening Results, S. aureus (increase in extracellular AK activity).
The mark [23] stands for this setting: 50 μM final drug concentration, 384-well format, cutoff for positive-scoring molecules 3-fold increase, read-out: AK-based Prestwick Library Screening Results, K. pneumoniae (increase in extracellular AK activity).
[24] abbreviates: 50 μM final drug concentration, 384-well format, cutoff for positive-scoring molecules 3-fold increase, read-out: AK-based Prestwick Library Screening Results, P. aeruginosa (increase in extracellular AK activity).
[25] abbreviates: 50 μM final drug concentration, 384-well format, cutoff for positive-scoring molecules 3-fold increase, read-out: AK-based Prestwick Library Screening Results, A. baumannii (increase in extracellular AK activity).
[26] abbreviates: 50 μM final drug concentration, 384-well format, cutoff for positive-scoring molecules 3-fold increase, read-out: AK-based Prestwick Library Screening Results, E. faecium (increase in extracellular AK activity).
[27] abbreviates: 50 μM final drug concentration, 384-well format, cutoff for positive-scoring molecules 3-fold increase, read-out: AK-based Prestwick Library Screening Results, E. coli (increase in extracellular AK activity).
Where [28] appears, read: 50 μM final drug concentration, 384-well format, cutoff for positive-scoring molecules 3-fold increase, read-out: AK-based Prestwick Library Screening Results, E. cloacae (increase in extracellular AK activity).

Counter-ions that a name gives are not always drawn. Like-named read-outs stand apart in the source and are kept apart here.

As for `CN(C)CCC=C1c2ccccc2C=Cc2ccccc21` [Cyclobenzaprine hydrochloride], the fold induction at 50 µM came to 1 in test [1] (setting [8]); 0.9 in test [2] (setting [9]); 1.1 in test [3] (setting [10]); 1.2 in test [4] (setting [11]); 1 in test [5] (setting [12]); 1.3 in test [6] (setting [13]). In addition, the fold induction at 50 µM in test [7] (setting [14]) is 1.2.
As to `COc1ccc2c(c1OC)C(=O)O[C@@H]2[C@H]1c2cc3c(cc2CCN1C)OCO3` [Hydrastine hydrochloride], the fold induction at 50 µM in test [1] (setting [15]) came to 0.6; in test [2] (setting [16]), 0.8; in test [3] (setting [17]), 0.9; in test [4] (setting [18]), 1; in test [5] (setting [19]), 1; in test [6] (setting [20]) it was 0.9. Also, in test [7] (setting [21]), the fold induction at 50 µM was 0.9.
Take `CC(=O)OCC(=O)[C@@]1(O)CC[C@H]2[C@@H]3CCC4=CC(=O)C=C[C@]4(C)[C@@]3(F)[C@@H](O)C[C@@]21C` [Isoflupredone acetate]: the fold induction at 50 µM in test [1] (setting [22]) was 0.4; in test [2] (setting [23]), 0.5; in test [3] (setting [24]) it was 0.4; in test [4] (setting [25]) it was 0.4; in test [5] (setting [26]) it was 0.9; in test [6] (setting [27]) it was 0.5. In test [7] (setting [28]), the fold induction at 50 µM worked out at 0.4.
Consider `O=c1c(O)c(-c2ccc(O)c(O)c2)oc2cc(O)cc(O)c12` [Quercetine dihydrate], for which the fold induction at 50 µM in test [1] (setting [15]) was found to be 0.1; in test [2] (setting [16]), 0.6; in test [3] (setting [17]), 0.6; in test [4] (setting [18]) it was 0.4; in test [5] (setting [19]), 0.8; in test [6] (setting [20]), 0.7. The fold induction at 50 µM in test [7] (setting [21]) came to 0.9.
Regarding `CCC1NC(=O)c2cc(S(N)(=O)=O)c(Cl)cc2N1` (stereo not drawn) [Quinethazone], the fold induction at 50 µM came to 0.4 in test [1] (50 μM final drug concentration, cutoff for positive-scoring molecules 3-fold increase, read-out: AK-based Prestwick Library Screening Results, S. aureus (fold increase in extracellular AK activity)); 0.6 in test [2] (50 μM final drug concentration, cutoff for positive-scoring molecules 3-fold increase, read-out: AK-based Prestwick Library Screening Results, K. pneumoniae (fold increase in extracellular AK activity)); 0.5 in test [3] (50 μM final drug concentration, cutoff for positive-scoring molecules 3-fold increase, read-out: AK-based Prestwick Library Screening Results, P. aeruginosa (fold increase in extracellular AK activity)); 0.5 in test [4] (50 μM final drug concentration, cutoff for positive-scoring molecules 3-fold increase, read-out: AK-based Prestwick Library Screening Results, A. baumannii (fold increase in extracellular AK activity)); 0.9 in test [5] (50 μM final drug concentration, cutoff for positive-scoring molecules 3-fold increase, read-out: AK-based Prestwick Library Screening Results, E. faecium (fold increase in extracellular AK activity)); 0.6 in test [6] (50 μM final drug concentration, cutoff for positive-scoring molecules 3-fold increase, read-out: AK-based Prestwick Library Screening Results, E. coli (fold increase in extracellular AK activity)). Moreover, in test [7] (50 μM final drug concentration, cutoff for positive-scoring molecules 3-fold increase, read-out: AK-based Prestwick Library Screening Results, E. cloacae (fold increase in extracellular AK activity)), the fold induction at 50 µM was found to be 0.4.
Turning to `NC(=O)N/N=C/c1ccc([N+](=O)[O-])o1` [Nitrofural], the fold induction at 50 µM in test [1] (setting [8]) came out at 0.5; in test [2] (setting [9]), 0.2; in test [3] (setting [10]) it was 0.8; in test [4] (setting [11]), 1; in test [5] (setting [12]), 1; in test [6] (setting [13]) it was 0.7. The fold induction at 50 µM in test [7] (setting [14]) worked out at 0.8.
On to `CC(N)C(O)c1ccccc1` (stereo not drawn) [Phenylpropanolamine hydrochloride], for which the fold induction at 50 µM was determined as 0.3 in test [1] (read-out: AK-based Prestwick Library Screening Results: S. aureus (increase in extracellular AK activity)); 0.5 in test [2] (read-out: AK-based Prestwick Library Screening Results: K. pneumoniae (increase in extracellular AK activity)); 0.4 in test [3] (read-out: AK-based Prestwick Library Screening Results: P. aeruginosa (increase in extracellular AK activity)); 0.4 in test [4] (read-out: AK-based Prestwick Library Screening Results: A. baumannii (increase in extracellular AK activity)); 0.8 in test [5] (read-out: AK-based Prestwick Library Screening Results: E. faecium (increase in extracellular AK activity)); 0.5 in test [6] (read-out: AK-based Prestwick Library Screening Results: E. coli (increase in extracellular AK activity)). For the same compound, in test [7] (read-out: AK-based Prestwick Library Screening Results: E. cloacae (increase in extracellular AK activity)), the fold induction at 50 µM was 0.4.
In the case of `Nc1ccc(S(=O)(=O)Nc2ncccn2)cc1` [Sulfadiazine], the fold induction at 50 µM in test [1] (setting [22]) amounted to 0.7; in test [2] (setting [23]), 0.7; in test [3] (setting [24]) it was 0.8; in test [4] (setting [25]) it was 1.2; in test [5] (setting [26]), 0.8; in test [6] (setting [27]), 1. For the same compound, in test [7] (setting [28]), the fold induction at 50 µM worked out at 0.9.
With `CC(C)[N+](C)(CCOC(=O)C1c2ccccc2Oc2ccccc21)C(C)C` [Propantheline bromide], the fold induction at 50 µM in test [1] (50 μM final drug concentration, planktonic, cutoff for positive-scoring molecules 3-fold increase, read-out: AK-based Prestwick Library Screening Results, S. aureus (fold increase in extracellular AK activity)) was determined as 0.8; in test [2] (50 μM final drug concentration, planktonic, cutoff for positive-scoring molecules 3-fold increase, read-out: AK-based Prestwick Library Screening Results, K. pneumoniae (fold increase in extracellular AK activity)), 0.8; in test [3] (50 μM final drug concentration, planktonic, cutoff for positive-scoring molecules 3-fold increase, read-out: AK-based Prestwick Library Screening Results, P. aeruginosa (fold increase in extracellular AK activity)), 0.9; in test [4] (50 μM final drug concentration, planktonic, cutoff for positive-scoring molecules 3-fold increase, read-out: AK-based Prestwick Library Screening Results, A. baumannii (fold increase in extracellular AK activity)) it was 1; in test [5] (50 μM final drug concentration, planktonic, cutoff for positive-scoring molecules 3-fold increase, read-out: AK-based Prestwick Library Screening Results, E. faecium (fold increase in extracellular AK activity)), 0.8; in test [6] (50 μM final drug concentration, planktonic, cutoff for positive-scoring molecules 3-fold increase, read-out: AK-based Prestwick Library Screening Results, E. coli (fold increase in extracellular AK activity)), 0.9. Further, the fold induction at 50 µM in test [7] (50 μM final drug concentration, planktonic, cutoff for positive-scoring molecules 3-fold increase, read-out: AK-based Prestwick Library Screening Results, E. cloacae (fold increase in extracellular AK activity)) stood at 1.3.

The record behind these values is patent publication US10004701B2, “Methods and compositions for treating infection” (UNIVERSITY OF ROCHESTER, priority 2012, dated 2018).
